Patent publication US6495693B2, “N-(aryl/heteroaryl) amino acid derivatives, pharmaceutical compositions comprising same, and methods for inhibiting β-amyloid peptide release and/or its synthesis by use of such compounds” (Athena Neurosciences, Inc., priority 1996, dated 2002)

Row | SMILES | melting point
1 | CC(Nc1ccc(Cl)c(Cl)c1)C(=O)NC(=O)[C@@H](N)Cc1ccccc1 (mixture of isomers) [Example 36, N-[N-(3,4dichlorophenyl)-D,L-alanyl]-L-phenylalanine amide] | 177 to 179 °C
2 | CCCC[C@H](NC(=O)[C@H](C)Nc1ccc(Cl)c(Cl)c1)C(=O)OC [Example 15, N-[N-(3,4dichlorophenyl)-L-alanyl]-(S)-2-aminohexanoic acid methyl ester] | 163 to 165 °C
3 | COC(=O)[C@H](Cc1c[nH]c2ccccc12)NC(=O)C(C)Nc1ccc(Cl)c(Cl)c1 (mixture of isomers) [Example 16, N-[N-(3,4dichlorophenyl)-D,L-alanyl]-L-tryptophan methyl ester] | 54 to 66 °C
4 | COC(=O)[C@H](Cc1ccccc1)NC(=O)[C@H](C)Nc1ccc(Cl)c(Cl)c1 [Example 12, N-[N-(3,4-dichlorophenyl)-L-alanyl]-L-phenylalanine methyl ester] | 122 to 124.5 °C
5 | COC(=O)[C@H](CC(C)C)NC(=O)[C@H](C)Nc1ccc(Cl)c(Cl)c1 [Example 11, N-[N-(3,4dichlorophenyl)-L-alanyl]-L-leucine methyl ester] | 120 to 132 °C
6 | COC(=O)[C@H](CC(=O)O)NC(=O)C(C)Nc1ccc(Cl)c(Cl)c1 (mixture of isomers) [Example 18, N-[N-(3,4dichlorophenyl)-D,L-alanyl]-L-aspartic acid methyl ester] | 53.5 to 56 °C
7 | CC(Nc1ccc(Cl)c(Cl)c1)C(=O)N[C@H](C(=O)N(C)C)C(C)C (mixture of isomers) [Example 8, N-[N-(3,4-dichlorophenyl)-D,L-alanyl]-L-valine N,N-dimethyl amide] | 145 to 160 °C
8 | CC(Nc1ccc(Cl)c(Cl)c1)C(=O)NC(=O)[C@@H](N)C(C)C (mixture of isomers) [Example 6, N-[N-(3,4dichlorophenyl)-D,L-alanyl]-L-valine amide] | 156 to 158 °C

Second part, the compound after the results:

Row | melting point | SMILES
9 | 93 to 95 °C | COC(=O)[C@H](C)NC(=O)C(C)Nc1cc(F)cc(F)c1 (mixture of isomers) [Example 49, N-[N-(3,5-difluorophenyl)-D,L-alanyl]-L-alanine methyl ester]
10 | 156 to 161 °C | CCCC[C@H](N)C(=O)NC(=O)[C@H](C)Nc1ccc(Cl)c(Cl)c1 [Example 40, N-[N-(3,4-dichlorophenyl)-L-alanyl]-(S)-2-aminohexanamide]
11 | 93 to 95 °C | CCCC[C@H](NC(=O)C(C)Nc1cc(F)cc(F)c1)C(=O)OC (mixture of isomers) [Example 50, N-[N-(3,5-difluorophenyl)-D,L-alanyl]-(S)-2-aminohexanoic acid methyl ester]
12 | 55 to 60 °C | COC(=O)[C@H](Cc1c[nH]cn1)NC(=O)C(C)Nc1ccc(Cl)c(Cl)c1 (mixture of isomers) [Example 46, N-[N-(3,4-dichlorophenyl)-D,L-alanyl]-L-histidine methyl ester]
13 | 184 to 186 °C | CCCC[C@H](N)C(=O)NC(=O)[C@H](C)Nc1ccc(Cl)c(Cl)c1 [Example 51, N-[N-(3,4dichlorophenyl)-L-alanyl]-(S)-2-aminohexanamide]
14 | 99 to 120 °C | CCCC[C@H](NC(=O)[C@H](C)Nc1nc2ccccc2s1)C(=O)OC [Example 48, N-[N-(benzothiazol-2-yl)-L-alanyl]-(S)-2-aminohexanoic acid methyl ester]
